Laboratory results reported in PubChem BioAssay AID200 (DTP/NCI, 2004).
“And” between values parts separate entries of the source, which are not always exact repeats. Equal entries are not always repeated. Inconclusive results and toxic doses are left out.

Tested on: B6C3F1 mice, B16 melanoma ip, median survival T/C
Assay: NCI In Vivo Anticancer Drug Screen. Data for tumor model B16 Melanoma (intraperitoneal) in B6C3F1 mice
Conditions: endpoint: median survival time, schedule: Q01DX009 (ip), higher = longer survival
How it was run: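 Readout: survival or tumor size in treated mice relative to vehicle controls (T/C). Model uses transplantable tumors grown in mice.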

[1] = dose: 25.0 mg/kg/injection, vehicle: saline with Tween-80
[2] = dose: 50.0 mg/kg/injection, vehicle: saline with Tween-80
[3] = dose: 100.0 mg/kg/injection, vehicle: saline with Tween-80
[4] = dose: 12.5 mg/kg/injection, vehicle: saline with Tween-80
[5] = dose: 6.25 mg/kg/injection, vehicle: saline with Tween-80
[6] = dose: 200.0 mg/kg/injection, vehicle: saline with Tween-80
[7] = dose: 400.0 mg/kg/injection, vehicle: saline with Tween-80
[8] = dose: 3.12 mg/kg/injection, vehicle: saline
[9] = dose: 6.25 mg/kg/injection, vehicle: saline
[10] = dose: 12.5 mg/kg/injection, vehicle: saline

Row | SMILES | T/C [1] | T/C [2] | T/C [3] | T/C [4] | T/C [6] | other results
1 | CC(CNC(=O)CCOS(C)(=O)=O)NC(=O)CCOS(C)(=O)=O (configuration not stated) | – | – | – | – | – | T/C (dose: 100.0 mg/kg/injection, vehicle: saline): 187 % of control; T/C (dose: 200.0 mg/kg/injection, vehicle: saline): 177 % of control and 240 % of control
2 | NC(=O)c1ncn2c(=O)n(CCCl)nnc12 | – | – | – | – | – | T/C (dose: 3.13 mg/kg/injection, vehicle: suspension in saline): 123 % of control; T/C (dose: 12.5 mg/kg/injection, vehicle: suspension in saline): 225 % of control; T/C (dose: 25.0 mg/kg/injection, vehicle: suspension in saline): 209 % of control
3 | O=C(CCCCCCC(=O)ON1C(=O)CCC1=O)ON1C(=O)CCC1=O | 99 % of control | 96 % of control | 103 % of control | – | – | –
4 | BrC1c2cccc3cccc(c23)C1Br (configuration not stated) | – | 155 % of control | – | 123 % of control | – | –
5 | O=[N+]([O-])c1ccc(N(CCO)CCO)c2c1no[n+]2[O-] | 102 % of control | – | – | 114 % of control | – | T/C [5]: 102 % of control
6 | CCCOC(=O)c1ccc(O)cc1 | 109 % of control | 109 % of control | 89 % of control | 103 % of control | 107 % of control | T/C [7]: 100 % of control
7 | CCOC(=O)C(C)(C)Oc1ccc(Cl)cc1 | 93 % of control and 102 % of control | 93 % of control and 101 % of control | 102 % of control and 104 % of control | 93 % of control and 105 % of control | 90 % of control | –
8 | COc1ccc(NC(=O)Oc2ccc3c(C)cc(=O)oc3c2)c(OC)c1 | 99 % of control | 94 % of control | 99 % of control | – | 100 % of control | T/C [7]: 98 % of control
9 | CCC(C)n1ncc2c(N(C)C)ncnc21 (configuration not stated) | – | – | – | – | – | T/C [8]: 98 % of control; T/C [9]: 95 % of control; T/C [10]: 95 % of control
10 | O=C(CCl)NC(Cc1ccccc1)C(=O)O (configuration not stated) | – | 88 % of control | 90 % of control | – | 90 % of control | –
11 | CCC1=C2C(=O)c3ccccc3C2=C(C)S(=O)(=O)O1 | – | – | – | – | – | T/C (dose: 1.56 mg/kg/injection, vehicle: saline with Tween-80): 98 % of control; T/C (dose: 3.12 mg/kg/injection, vehicle: saline with Tween-80): 98 % of control; T/C [5]: 91 % of control and 93 % of control
12 | CC(=O)Nc1ccc(/C=N/NC(N)=S)cc1 | 93 % of control | 97 % of control | 90 % of control | – | 88 % of control | T/C [7]: 92 % of control
13 | O=c1[nH]c2c(ccc3cnccc32)c2c1CCC2 | – | – | – | – | – | T/C [8]: 97 % of control; T/C [9]: 113 % of control; T/C [10]: 119 % of control
14 | Cc1cc(NC(=S)SCc2ccc3c(c2)OCO3)ccc1Cl | – | – | – | – | – | T/C (dose: 50.0 mg/kg/injection, vehicle: Klucel (hydroxypropylcellulose) (HPC)): 103 % of control; T/C (dose: 100.0 mg/kg/injection, vehicle: Klucel (hydroxypropylcellulose) (HPC)): 112 % of control
15 | CN=C(N)N/N=C(\C)c1ccc2c(c1)Cc1ccccc1-2 | 118 % of control | 119 % of control | 122 % of control | 111 % of control | – | –
